# PMC6691788, “Design and synthesis of phthalazine-based compounds as potent anticancer agents with potential antiangiogenic activity via VEGFR-2 inhibition” (Journal of Enzyme Inhibition and Medicinal Chemistry, 2019)
# Experiments:
# RXF 393 = experiment: NCI 60 cell panel SRB screen; assay type: cell-based; conditions: Homo sapiens; for GI50 / IC (TGI) / CC50: RXF 393, 5 log dose; for CC50: 48 h, read-out: LC50 (the source's name); for activity at 10 µM: RXF 393, single dose 10 μM, read-out: percent cell growth promotion
# SR = experiment: NCI 60 cell panel SRB screen; assay type: cell-based; conditions: Homo sapiens; for GI50 / IC (TGI) / CC50: 5 log dose; for CC50: 48 h, read-out: LC50 (the source's name); for activity at 10 µM: single dose 10 μM, read-out: percent cell growth promotion
# SNB-19 = experiment: NCI 60 cell panel SRB screen; assay type: cell-based; conditions: Homo sapiens; for GI50 / IC (TGI) / CC50: SNB-19, 5 log dose; for CC50: 48 h, read-out: LC50 (the source's name); for activity at 10 µM: SNB-19, single dose 10 μM, read-out: percent cell growth promotion
# VEGFR-2 tyrosine kinase = molecular target: T1, VEGFR-2 tyrosine kinase (Homo sapiens, UniProt P35968); experiment: In vitro VEGFR-2 tyrosine kinase assay (BPS Bioscience); assay type: biochemical; conditions: read-out: VEGFR-2 % inhibition; 10 μM concentration
# T1 construct: purchased BPS Bioscience 40301
# T1 sequence (P35968 20-1356): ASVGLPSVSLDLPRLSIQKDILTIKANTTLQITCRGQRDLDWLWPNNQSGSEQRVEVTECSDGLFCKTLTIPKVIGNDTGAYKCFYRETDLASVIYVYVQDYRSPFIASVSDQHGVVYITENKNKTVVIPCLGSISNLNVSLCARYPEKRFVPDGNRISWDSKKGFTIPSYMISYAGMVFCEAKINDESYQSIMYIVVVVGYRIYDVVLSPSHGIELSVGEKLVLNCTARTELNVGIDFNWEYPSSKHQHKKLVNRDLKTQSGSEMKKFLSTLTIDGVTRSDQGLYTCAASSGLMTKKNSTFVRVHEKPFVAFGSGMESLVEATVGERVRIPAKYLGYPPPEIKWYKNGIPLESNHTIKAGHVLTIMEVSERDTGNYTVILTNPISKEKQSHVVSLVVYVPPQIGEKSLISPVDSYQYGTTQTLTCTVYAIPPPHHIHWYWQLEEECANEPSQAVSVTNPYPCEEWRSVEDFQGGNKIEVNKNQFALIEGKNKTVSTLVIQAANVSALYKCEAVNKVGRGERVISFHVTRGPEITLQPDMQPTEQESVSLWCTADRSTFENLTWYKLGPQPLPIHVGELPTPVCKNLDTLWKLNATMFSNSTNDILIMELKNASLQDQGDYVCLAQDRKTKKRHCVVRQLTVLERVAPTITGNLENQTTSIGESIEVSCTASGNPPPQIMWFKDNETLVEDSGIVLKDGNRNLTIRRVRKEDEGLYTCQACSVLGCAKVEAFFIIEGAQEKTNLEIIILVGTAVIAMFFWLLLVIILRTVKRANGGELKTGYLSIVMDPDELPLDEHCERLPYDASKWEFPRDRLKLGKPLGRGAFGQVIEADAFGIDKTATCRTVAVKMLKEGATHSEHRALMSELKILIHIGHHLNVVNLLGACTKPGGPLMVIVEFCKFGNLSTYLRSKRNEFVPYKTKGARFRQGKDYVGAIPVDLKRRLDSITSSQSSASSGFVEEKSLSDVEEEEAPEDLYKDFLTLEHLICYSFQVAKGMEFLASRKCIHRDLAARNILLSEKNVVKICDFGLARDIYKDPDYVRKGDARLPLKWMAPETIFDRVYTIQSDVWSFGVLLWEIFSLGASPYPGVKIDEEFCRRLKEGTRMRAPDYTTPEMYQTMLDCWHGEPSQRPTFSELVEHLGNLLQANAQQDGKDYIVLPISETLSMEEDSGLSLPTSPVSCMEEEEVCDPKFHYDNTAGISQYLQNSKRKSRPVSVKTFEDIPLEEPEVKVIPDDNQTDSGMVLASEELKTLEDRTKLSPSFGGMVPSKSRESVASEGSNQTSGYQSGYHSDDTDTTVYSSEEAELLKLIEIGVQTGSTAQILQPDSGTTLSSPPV
# Summary of the method: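 For IC50, ADP formation after a 30-min 30 °C reaction was detected by ADP-Glo luminescence in duplicate, blank-subtracted and fitted as log inhibitor versus normalised response. The 10 µM single-dose test instead measured remaining ATP (Kinase-Glo Plus) after 40 min at 30 °C with poly(Glu,Tyr) substrate, 10 μM ATP, pH 7.4, 1% DMSO.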
# RPMI-8226 = experiment: NCI 60 cell panel SRB screen; assay type: cell-based; conditions: Homo sapiens; for GI50 / IC (TGI) / CC50: RPMI-8226, 5 log dose; for CC50: 48 h, read-out: LC50 (the source's name); for activity at 10 µM: RPMI-8226, single dose 10 μM, read-out: percent cell growth promotion
# HT29 = experiment: NCI 60 cell panel SRB screen; assay type: cell-based; conditions: Homo sapiens, HT-29; for GI50 / IC (TGI) / CC50: HT29, 5 log dose; for CC50: 48 h, read-out: LC50 (the source's name); for activity at 10 µM: HT29, single dose 10 μM, read-out: percent cell growth promotion
# TK-10 = experiment: NCI 60 cell panel SRB screen; assay type: cell-based, human; conditions: Homo sapiens; TK-10, single dose 10 μM; read-out: percent cell growth promotion
# SK-MEL-5 = experiment: NCI 60 cell panel SRB screen; assay type: cell-based; conditions: Homo sapiens; for GI50: SK-MEL-5; for IC (TGI): SK-MEL-5, read-out: TGI; for activity at 10 µM: SK-MEL-5, read-out: percent cell growth promotion; for CC50: SK-MEL-5, 5 log dose, 48 h, read-out: LC50 (the source's name)
# T-47D = experiment: NCI 60 cell panel SRB screen; assay type: cell-based; conditions: Homo sapiens, T47D; for IC (TGI): read-out: TGI; for activity at 10 µM: read-out: percent cell growth promotion; for CC50: T-47D, 5 log dose, 48 h, read-out: LC50 (the source's name)
# OVCAR-8 = experiment: NCI 60 cell panel SRB screen; assay type: cell-based; conditions: Homo sapiens; for GI50 / IC (TGI) / CC50: OVCAR-8, 5 log dose; for CC50: 48 h, read-out: LC50 (the source's name); for activity at 10 µM: OVCAR-8, single dose 10 μM, read-out: percent cell growth promotion
# KM12 = experiment: NCI 60 cell panel SRB screen; assay type: cell-based; conditions: Homo sapiens; for GI50 / IC (TGI) / CC50: KM12, 5 log dose; for CC50: 48 h, read-out: LC50 (the source's name); for activity at 10 µM: KM12, single dose 10 μM, read-out: percent cell growth promotion
# OVCAR-3 = experiment: NCI 60 cell panel SRB screen; assay type: cell-based; conditions: Homo sapiens; for GI50 / IC (TGI) / CC50: OVCAR-3, 5 log dose; for CC50: 48 h, read-out: LC50 (the source's name); for activity at 10 µM: OVCAR-3, single dose 10 μM, read-out: percent cell growth promotion
# CCRF-CEM = experiment: NCI 60 cell panel SRB screen; assay type: cell-based, human; conditions: for TGI / GI50 / CC50: 5 log dose; for GI50 / CC50 / activity at 10 µM: Homo sapiens; for CC50: 48 h, read-out: LC50 (the source's name); for activity at 10 µM: single dose 10 μM, read-out: percent cell growth promotion
# NCI-H460 = experiment: NCI 60 cell panel SRB screen; assay type: cell-based; conditions: Homo sapiens; for GI50 / IC (TGI) / LC50 (concentration causing 50% cell kill): NCI-H460, 5 log dose; for LC50 (concentration causing 50% cell kill): 48 h; for activity at 10 µM: NCI-H460, single dose 10 μM, read-out: percent cell growth promotion
# NCI-H322M = experiment: NCI 60 cell panel SRB screen; assay type: cell-based; conditions: Homo sapiens; for GI50 / IC (TGI) / CC50: 5 log dose; for CC50: 48 h, read-out: LC50 (the source's name); for activity at 10 µM: single dose 10 μM, read-out: percent cell growth promotion
# NCI-H226 = experiment: NCI 60 cell panel SRB screen; assay type: cell-based; conditions: Homo sapiens; for GI50 / IC (TGI) / CC50: NCI-H226, 5 log dose; for CC50: 48 h, read-out: LC50 (the source's name); for activity at 10 µM: NCI-H226, single dose 10 μM, read-out: percent cell growth promotion
# HCC-2998 = experiment: NCI 60 cell panel SRB screen; assay type: cell-based; conditions: Homo sapiens; for GI50 / IC (TGI) / LC50 (50% lethal concentration): HCC-2998, 5 log dose; for LC50 (50% lethal concentration): 48 h; for activity at 10 µM: HCC-2998, single dose 10 μM, read-out: percent cell growth promotion
# HL-60(TB) = experiment: NCI 60 cell panel SRB screen; assay type: cell-based; conditions: Homo sapiens; for GI50 / IC (TGI) / CC50: 5 log dose; for CC50: 48 h, read-out: LC50 (the source's name); for activity at 10 µM: single dose 10 μM, read-out: percent cell growth promotion
# PC-3 = experiment: NCI 60 cell panel SRB screen; assay type: cell-based; conditions: Homo sapiens; for GI50 / IC (TGI) / CC50: PC-3, 5 log dose; for CC50: 48 h, read-out: LC50 (the source's name); for activity at 10 µM: PC-3, single dose 10 μM, read-out: percent cell growth promotion
# LOX IMVI = experiment: NCI 60 cell panel SRB screen; assay type: cell-based; conditions: Homo sapiens; for CC50: 5 log dose, 48 h, read-out: LC50 (the source's name); for IC (TGI): read-out: TGI; for activity at 10 µM: read-out: percent cell growth promotion
smiles,measurement,setting,value
"Clc1ccc(Nc2nnc(CNc3ccccc3)c3ccccc23)cc1 [Compound 16a, N-(4-Chlorophenyl)-4-((phenylamino)methyl)phthalazin-1-amine]",GI50,RXF 393,2.6 µM
same,IC (TGI),RXF 393,8.12 µM
same,CC50,RXF 393,> 25 µM
same,activity at 10 µM,RXF 393,25.7%
same,GI50,SR,1.75 µM
same,IC (TGI),SR,12.3 µM
same,CC50,SR,> 25 µM
same,activity at 10 µM,SR,-9.19%
same,GI50,SNB-19,4.71 µM
same,IC (TGI),SNB-19,22.7 µM
same,CC50,SNB-19,> 25 µM
same,activity at 10 µM,SNB-19,25.9%
same,inhibition at 10 µM,VEGFR-2 tyrosine kinase,47%
same,GI50,RPMI-8226,2.1 µM
same,IC (TGI),RPMI-8226,7.71 µM
same,CC50,RPMI-8226,> 25 µM
same,activity at 10 µM,RPMI-8226,3.35%
same,GI50,HT29,1.46 µM
same,IC (TGI),HT29,6.36 µM
same,CC50,HT29,21.2 µM
same,activity at 10 µM,HT29,0.55%
same,activity at 10 µM,TK-10,-0.69%
same,GI50,SK-MEL-5,2.08 µM
same,IC (TGI),SK-MEL-5,5.27 µM
same,activity at 10 µM,SK-MEL-5,-69.1%
same,CC50,SK-MEL-5,11.8 µM
same,GI50,T-47D,1.17 µM
same,IC (TGI),T-47D,8.28 µM
same,activity at 10 µM,T-47D,2.82%
same,CC50,T-47D,> 25 µM
same,GI50,OVCAR-8,4.63 µM
same,IC (TGI),OVCAR-8,16.8 µM
same,CC50,OVCAR-8,> 25 µM
same,activity at 10 µM,OVCAR-8,18.2%
same,GI50,KM12,3.05 µM
same,IC (TGI),KM12,9.91 µM
same,CC50,KM12,> 25 µM
same,activity at 10 µM,KM12,8.93%
same,GI50,OVCAR-3,3.51 µM
same,IC (TGI),OVCAR-3,8.69 µM
same,CC50,OVCAR-3,21.5 µM
same,activity at 10 µM,OVCAR-3,-1.64%
same,TGI,CCRF-CEM,17.6 µM
same,GI50,CCRF-CEM,3.53 µM
same,CC50,CCRF-CEM,> 25 µM
same,activity at 10 µM,CCRF-CEM,12.4%
same,GI50,NCI-H460,3.21 µM
same,IC (TGI),NCI-H460,9.98 µM
same,LC50 (concentration causing 50% cell kill),NCI-H460,> 25 µM
same,activity at 10 µM,NCI-H460,17.6%
same,GI50,NCI-H322M,3.54 µM
same,IC (TGI),NCI-H322M,18.3 µM
same,CC50,NCI-H322M,> 25 µM
same,activity at 10 µM,NCI-H322M,30.4%
same,GI50,NCI-H226,2.52 µM
same,IC (TGI),NCI-H226,7.98 µM
same,CC50,NCI-H226,> 25 µM
same,activity at 10 µM,NCI-H226,25%
same,GI50,HCC-2998,4.85 µM
same,IC (TGI),HCC-2998,1.59 µM
same,LC50 (50% lethal concentration),HCC-2998,> 25 µM
same,activity at 10 µM,HCC-2998,18.3%
same,GI50,HL-60(TB),3.71 µM
same,IC (TGI),HL-60(TB),13 µM
same,CC50,HL-60(TB),> 25 µM
same,activity at 10 µM,HL-60(TB),-13.3%
same,GI50,PC-3,14.4 µM
same,IC (TGI),PC-3,14.4 µM
same,CC50,PC-3,> 25 µM
same,activity at 10 µM,PC-3,7.15%
same,GI50,LOX IMVI,1.57 µM
same,CC50,LOX IMVI,11.4 µM
same,IC (TGI),LOX IMVI,4.97 µM
same,activity at 10 µM,LOX IMVI,12.1%
"COc1cccc(NCc2nnc(Nc3ccc(Cl)cc3)c3ccccc23)c1 [Compound 16d, N-(4-Chlorophenyl)-4-((3-methoxyphenylamino)methyl)phthalazin-1-amine]",GI50,RXF 393,2.16 µM
same,IC (TGI),RXF 393,6.11 µM
same,CC50,RXF 393,15.9 µM
same,activity at 10 µM,RXF 393,-11.6%
same,GI50,SR,0.97 µM
same,IC (TGI),SR,8.85 µM
same,CC50,SR,> 25 µM
same,activity at 10 µM,SR,-24.5%
same,GI50,SNB-19,3.5 µM
same,IC (TGI),SNB-19,13 µM
same,CC50,SNB-19,> 25 µM
same,activity at 10 µM,SNB-19,17.8%
same,inhibition at 10 µM,VEGFR-2 tyrosine kinase,24%
same,GI50,RPMI-8226,1.48 µM
same,IC (TGI),RPMI-8226,7.51 µM
same,CC50,RPMI-8226,> 25 µM
same,activity at 10 µM,RPMI-8226,-28.1%
same,GI50,HT29,0.34 µM
same,IC (TGI),HT29,3.62 µM
same,CC50,HT29,12 µM
same,activity at 10 µM,HT29,-21%
same,activity at 10 µM,TK-10,-40.9%
same,GI50,SK-MEL-5,0.81 µM
same,IC (TGI),SK-MEL-5,4.18 µM
same,activity at 10 µM,SK-MEL-5,-98.5%
same,CC50,SK-MEL-5,10.2 µM
same,GI50,T-47D,0.64 µM
same,IC (TGI),T-47D,6.56 µM
same,activity at 10 µM,T-47D,-8.49%
same,CC50,T-47D,> 25 µM
same,GI50,OVCAR-8,3.61 µM
same,IC (TGI),OVCAR-8,14.7 µM
same,CC50,OVCAR-8,> 25 µM
same,activity at 10 µM,OVCAR-8,3.02%
same,GI50,KM12,0.13 µM
same,IC (TGI),KM12,6.52 µM
same,CC50,KM12,18.6 µM
same,activity at 10 µM,KM12,-24.9%
same,GI50,OVCAR-3,1.64 µM
same,IC (TGI),OVCAR-3,10 µM
same,CC50,OVCAR-3,> 25 µM
same,activity at 10 µM,OVCAR-3,-53.6%
same,TGI,CCRF-CEM,13.4 µM
same,GI50,CCRF-CEM,2.73 µM
same,CC50,CCRF-CEM,> 25 µM
same,activity at 10 µM,CCRF-CEM,-4.42%
same,GI50,NCI-H460,2.69 µM
same,IC (TGI),NCI-H460,7.15 µM
same,LC50 (concentration causing 50% cell kill),NCI-H460,19 µM
same,activity at 10 µM,NCI-H460,0.1%
same,GI50,NCI-H322M,1.4 µM
same,IC (TGI),NCI-H322M,7.85 µM
same,CC50,NCI-H322M,> 25 µM
same,activity at 10 µM,NCI-H322M,3.32%
same,GI50,NCI-H226,0.95 µM
same,IC (TGI),NCI-H226,6.82 µM
same,CC50,NCI-H226,> 25 µM
same,activity at 10 µM,NCI-H226,-22.9%
same,GI50,HCC-2998,3.44 µM
same,IC (TGI),HCC-2998,8.79 µM
same,LC50 (50% lethal concentration),HCC-2998,22.5 µM
same,activity at 10 µM,HCC-2998,2.79%
same,GI50,HL-60(TB),3.78 µM
same,IC (TGI),HL-60(TB),13.1 µM
same,CC50,HL-60(TB),> 25 µM
same,activity at 10 µM,HL-60(TB),-27.1%
same,GI50,PC-3,1.19 µM
same,IC (TGI),PC-3,9.33 µM
same,CC50,PC-3,> 25 µM
same,activity at 10 µM,PC-3,-13.6%
same,GI50,LOX IMVI,1.11 µM
same,CC50,LOX IMVI,12.8 µM
same,IC (TGI),LOX IMVI,4.83 µM
same,activity at 10 µM,LOX IMVI,-58.7%
